For the test, the target named is T1, TREK-1 channel (Rattus norvegicus, UniProt Q920B6).
T1 construct: expressed in transfected cells; host or cells: COS7 (Korean Cell Line Bank), transient transfection with Effectene
T1 sequence (Q920B6 1-426): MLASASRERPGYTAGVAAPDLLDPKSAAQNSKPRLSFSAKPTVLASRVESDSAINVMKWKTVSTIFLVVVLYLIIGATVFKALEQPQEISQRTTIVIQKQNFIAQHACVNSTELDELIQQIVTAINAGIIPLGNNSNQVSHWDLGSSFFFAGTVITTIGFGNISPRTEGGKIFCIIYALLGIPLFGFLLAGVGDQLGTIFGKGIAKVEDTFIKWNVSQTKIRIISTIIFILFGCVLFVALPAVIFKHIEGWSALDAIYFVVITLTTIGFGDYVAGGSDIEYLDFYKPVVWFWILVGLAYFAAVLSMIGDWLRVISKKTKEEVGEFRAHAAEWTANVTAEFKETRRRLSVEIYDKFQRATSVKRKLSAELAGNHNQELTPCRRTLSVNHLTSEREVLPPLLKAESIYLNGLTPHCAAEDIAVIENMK
Put plainly: Assay for TREK channel inhibition activity (whole cell patch clamp recording, COS7 cell transfected with GFP-rTREK-1). It counts as cell-based. The following applies: COS7 cells, GFP-rTREK-1, whole-cell patch clamp; for inhibition at 10 µM: COS-7, Table 2, read-out: block % at 10 μM; for inhibition at 101 µM: COS-7, Table 3 (value ± spread), 101 μM [sic], read-out: block % at 101 μM. The procedure: The inhibition activity of the compound of the present invention against TREK-1 channel was measured by measuring the physiological activity by whole cell patch clamp recording.
COS7 cell (obtained from Korean Cell Line Bank (KCLB)) was transfected with GFP-rTREK-1 gene (accession number: AY727922) using an Effectene transfection reagent (Qiagen), and cultured for 24 hours in an incubator at 37° C. As a culture medium, Dulbecco's modified Eagle's medium (DMEM, GIBCO products from Invitrogen) containing 10% by weight of fetal bovine serum (FBS) and 1% by weight of penicillin/streptomycin (5000 unit/ml) was used. The cells thus prepared were adhered on a cover glass, which was placed on a chamber, and then a recording solution (150 mM NaCl, 10 mM HEPES, 10 mM KCl, 2 mM CaCl2, 5.5 mM D-Glucose, all reagents were purchased from Sigma) was applied. A glass microelectrode was filled with an intracellular solution prepared with the composition of 150 mM KCl, 5 mM EGTA, 10 mM HEPES, 0.5 mM CaCl2, 1 mM MgCl2, 4 mM Mg-ATP, and 0.3 mM Na-GTP (all reagents were purchased from Sigma), followed by whole-cell patch clamp recording. The voltage was fixed at −70 mV using a Digidata 1322A data acquisition system (Molecular Devices) and an Axopatch 200A amplifier (Axon Instruments), and the current generated by applying a voltage ramp from −100 mV to +100 mV for 1 second was measured using a Clampex9.2 program. A difference between the current values measured at +100 mV and −100 mV was defined as a current in the above experiment. The currents before and after blocker treatment were measured so as to determine the inhibition activity.
Block %=100−(current after blocker treatment/current before blocker treatment)*100
(The patch-clamp technique gives a direct electrical read-out from membranes.)

Take `Cc1ccc(OC[C@@H](O)CN2CCN(Cc3c(F)cccc3Cl)CC2)cc1` [KKRE10138]: the inhibition at 10 µM turned out to be 13% and the inhibition at 101 µM turned out to be 13 ± 10.1%. In addition, the “block % at 100 μM” value (Table 2) was 71.47%. Also, under “Table 3 (value ± spread)”, the “block % at 100 μM” value was 71.47 ± 3.30%.

In the case of `O=C(CN1CCN(C[C@@H](O)COc2ccc(C(F)(F)F)cc2)CC1)Nc1ccc(F)cc1` [KKRE10145], the inhibition at 10 µM amounted to 35.2% and the inhibition at 101 µM turned out to be 35.2 ± 4.89%.

Regarding `COc1cccc(C2CCN(C[C@@H](O)COc3ccc(F)cc3)CC2)c1` [KKRE10162, (R)-1-(4-fluorophenoxy)-3-(4-(3-methoxyphenyl)piperidin-1-yl)propan-2-ol], the inhibition at 10 µM was found to be 52.5% and the inhibition at 101 µM worked out at 52.5 ± 6.76%.

Consider `Cc1ccc(CNC(=O)CN2CCN(C[C@H](O)COc3ccccc3)CC2)cc1` [KKRE10205, (S)-2-(4-(2-hydroxy-3-phenoxypropyl)piperazin-1-yl)-N-(4-methylbenzyl)acetamide], for which the inhibition at 10 µM came to 26.4% and the inhibition at 101 µM amounted to 26.4 ± 12.2%.

Take `O=C(CN1CCN(C[C@@H](O)COc2ccccc2)CC1)NCc1ccc(C(F)(F)F)cc1` [KKRE10206, (R)-2-(4-(2-hydroxy-3-phenoxypropyl)piperazin-1-yl)-N-(4-(trifluoromethyl)benzyl)acetamide]: the inhibition at 101 µM amounted to 44 ± 7.7%.

Turning to `O=C(CN1CCN(C[C@H](O)COc2ccccc2)CC1)NCc1ccc(C(F)(F)F)cc1` [KKRE10207, (S)-2-(4-(2-hydroxy-3-phenoxypropyl)piperazin-1-yl)-N-(4-(trifluoromethyl)benzyl)acetamide], the inhibition at 10 µM was 53% and the inhibition at 101 µM is 53 ± 5.98%.

Regarding `CC(C)Cc1cc(CN2CCN(C[C@@H](O)COc3ccc(C(F)(F)F)cc3)CC2)nn1-c1ccccc1` [KKRE10231], the inhibition at 101 µM was found to be 48.5 ± 4.26%.

For `CC(C)Cc1cc(CN2CCN(C[C@H](O)COc3ccc(F)cc3)CC2)nn1-c1ccccc1` [KKRE10232], the inhibition at 101 µM turned out to be 21.7 ± 3.13%.

Regarding `CC(C)Cc1cc(CN2CCN(C[C@@H](O)COc3ccc(F)cc3)CC2)nn1-c1ccccc1` [KKRE10233], the inhibition at 101 µM worked out at 21.6 ± 4.63%.

`CC(C)Cc1cc(CN2CCN(C[C@H](O)COc3ccc(C(F)(F)F)cc3)CC2)nn1-c1ccccc1` [KKRE10234]: the inhibition at 101 µM turned out to be 84.2 ± 2.22%.

For `CC[C@H]1CN2CC[C@H]1C[C@H]2[C@H](O)c1ccnc2ccc(OC)cc12` [hydroquinine, reference compound], the inhibition at 10 µM was 19.8% and the inhibition at 101 µM is 19.8 ± 9.57%. For the same molecule, under “Table 2”, the “block % at 100 μM” value was 49.71%. Where the note is “Table 3 (value ± spread)”, the “block % at 100 μM” value worked out at 49.71 ± 5.83%.

Consider `C=C[C@H]1C[N@@]2CC[C@H]1C[C@@H]2[C@@H](O)c1ccnc2ccc(OC)cc12` [quinidine, reference compound], for which the “block % at 100 μM” value (Table 2) is recorded as 33.46% and the “block % at 100 μM” value (Table 3 (value ± spread)) came to 33.46 ± 8.09%.

Consider `C=C[C@H]1C[N@@]2CC[C@H]1C[C@H]2[C@H](O)c1ccnc2ccc(OC)cc12` [quinine, reference compound], for which the inhibition at 10 µM was 17% and the inhibition at 101 µM amounted to 17 ± 6.93%. Besides, the “block % at 100 μM” value (Table 2) is recorded as 50.00%. Under “Table 3 (value ± spread)”, the “block % at 100 μM” value was found to be 50.00 ± 5.72%.

Values taken from US9458120B2, “Phenoxypropanol derivative and pharmaceutical composition including the same” (KOREA INSTITUTE OF SCIENCE AND TECHNOLOGY, priority 2011, dated 2016).
